According to patent US20020188010A1, “Compositions of matter containing L-glutamine and pyridoxal-alpha-ketoglutarate” (priority 2001, published 2002):

Legend:
[1] = tested on: Ileitis (9 yrs duration); test: Improvement of ileitis in patients given L-glutamine alone or L-glutamine/PAK; format: in vivo
Excerpt: (§1) [table] While the compositions of the invention have been tested on patients suffering from disorders affecting the intestinal mucosa, the methods of the invention are appropriate for use in treating other diseases wherein stimulation of cell growth or repair of cells with natural rapid turn-over is desirable. Such diseases include, but are not limited to, leaky gut syndrome and other diseases of maldigestion, chronic fatigue syndrome, fibromyalgia, diabetes, thyroiditis and chronic viral disease. The combination therapy described herein will, by enhancing the growth and the repair of intestinal cells, increase the ability of the intestinal wall to reject and neutralize parasites and inhibit overgrowth of fungal organisms.

[2] = tested on: IBS (6 yrs duration); test: Improvement of IBS in patients given L-glutamine alone or L-glutamine/PAK; format: in vivo
Excerpt: as §1

Compound: NC(=O)CC[C@H](N)C(=O)O [L-glutamine]
- percent of improvement upon administration of the L-glutamine alone ([1]; dose 3 gm L-glutamine): 5%
- percent of improvement upon administration of the L-glutamine alone ([1]; dose 15 gm L-glutamine): 20%
- percent of improvement upon administration of the L-glutamine alone ([1]; dose 30 gm L-glutamine): 50%
- percent of improvement upon administration of the L-glutamine alone ([1]; dose 60 gm L-glutamine): 90%
- percent of improvement upon administration of the L-glutamine alone ([2]; dose 3 gm L-glutamine): none
- percent of improvement upon administration of the L-glutamine alone ([2]; dose 15 gm L-glutamine): 25%
- percent of improvement upon administration of the L-glutamine alone ([2]; dose 30 gm L-glutamine): 45%
- percent of improvement upon administration of the L-glutamine alone ([2]; dose 60 gm L-glutamine): 85%
